# Tests used:
# [1] = biological target: T1, human 5-hydroxytryptamine-2C (h5-HT2C) receptor (Homo sapiens, UniProt P28335); experiment: [125I]DOI binding to membranes of CHO cells expressing the human 5-HT2C receptor; settings: [125I]DOI radioligand, CHO cell membranes, room temperature 60 min; read-out: 5-HT2C Affinity Ki
# T1 construct: expressed in transfected cells; host or cells: CHO (Chinese Hamster Ovary) cells; membranes
# T1 sequence (P28335 33-458): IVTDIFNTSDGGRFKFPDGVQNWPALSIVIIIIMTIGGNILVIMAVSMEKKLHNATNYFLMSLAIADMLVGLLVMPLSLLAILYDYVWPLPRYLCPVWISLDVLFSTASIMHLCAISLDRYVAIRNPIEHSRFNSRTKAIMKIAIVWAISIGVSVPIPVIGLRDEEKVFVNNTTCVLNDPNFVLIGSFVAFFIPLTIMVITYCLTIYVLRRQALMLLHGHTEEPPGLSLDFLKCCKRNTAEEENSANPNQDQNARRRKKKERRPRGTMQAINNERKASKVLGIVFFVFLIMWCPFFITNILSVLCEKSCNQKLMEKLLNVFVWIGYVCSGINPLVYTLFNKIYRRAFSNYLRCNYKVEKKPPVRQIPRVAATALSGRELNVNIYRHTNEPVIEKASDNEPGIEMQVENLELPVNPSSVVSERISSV
# human 5-HT2C receptor = biological target: T2, human 5-HT2C receptor (Homo sapiens, UniProt P28335); experiment: 5-HT2C receptor-stimulated calcium mobilization (FLIPR) in CHO cells; type: cell-based; settings: for Emax: CHO, read-out: 5-HT2C Function Emax (%); for Emax / 5-HT2C Function Emax (%): percentage of the response observed with a maximally effective concentration of 5-HT; for EC50: calcium mobilization, CHO cells stably expressing human 5-HT2C, read-out: 5-HT2C Function EC50;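 for all read-outs here: Fluo-3-AM fluorescence read on FLIPR every 1 s, agonist added after 10 baseline reads, response taken as peak minus lowest raw fluorescence count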
# T2 sequence (P28335 33-458): T1 sequence (P28335 33-458)
Ki [1],Emax (human 5-HT2C receptor),EC50 (human 5-HT2C receptor),5-HT2C Function Emax (%) (human 5-HT2C receptor),SMILES
56 nM,100%,540 nM,–,"NCC1Cc2cccc(-c3ccccc3)c2O1 (single isomer, unassigned; (-)) [Example 38, (−)-1-(7-phenyl-2,3-dihydro-1-benzofuran-2-yl)methanamine]"
0.24 nM,90%,0.1 nM,–,"CNCC1Cc2ccc(F)c(-c3ccccc3Cl)c2O1 (racemic) [Example 402, (±)-{[6-fluoro-7-(2-chlorophenyl)-2,3-dihydro-1-benzofuran-2-yl]methyl}methylamine]"
1 nM,80%,45 nM,–,"NCC1Cc2cccc(-c3ccccc3C(F)(F)F)c2O1 (racemic) [Example 53, (±)-1-{7-[2-(trifluoromethyl)phenyl]-2,3-dihydro-1-benzofuran-2-yl}methanamine]"
16 nM,90%,77 nM,–,"CC(C)(C)c1cc(Cl)cc2c1OC(CN)C2 (single isomer, unassigned; (-)) [Example 28, (−)-1-(7-tert-butyl-5-chloro-2,3-dihydro-1-benzofuran-2-yl)methanamine]"
30 nM,80%,190 nM,–,"COc1cc2c(c(-c3cc(C)ccc3C)c1)OC(CN)C2 (racemic) [Example 370, (±)-{[7-(2,5-dimethylphenyl)-5-methoxy-2,3-dihydro-1-benzofuran-2-yl]methyl}amine]"
3.6 nM,90%,57 nM,–,"CNCC1Cc2cc(OC)cc(-c3cc(Cl)ccc3Cl)c2O1 (racemic) [Example 499, (±)-{[7-(2,5-dichlorophenyl)-5-methoxy-2,3-dihydro-1-benzofuran-2-yl]methyl}methylamine]"
3.6 nM,80%,66 nM,–,"COc1cccc(-c2cccc3c2OC(CN)C3)c1 (single isomer, unassigned; (+)) [Example 133, (+)-1-[7-(3-methoxyphenyl)-2,3-dihydro-1-benzofuran-2-yl]methanamine]"
5 nM,100%,41 nM,–,"NCC1Cc2cccc(-c3ccc(F)cc3)c2O1 (racemic) [Example 73, (±)-1-[7-(4-fluorophenyl)-2,3-dihydro-1-benzofuran-2-yl]methanamine]"
37 nM,80%,111 nM,–,"NCC1Cc2cc(C(F)(F)F)cc(-c3ccc(F)cc3F)c2O1 (racemic) [Example 332, (±)-{[7-(2,4-difluorophenyl)-5-(trifluoromethyl)-2,3-dihydro-1-benzofuran-2-yl]methyl}amine]"
24 nM,–,294 nM,50%,"COc1ccc(-c2cccc3c2OC(CN)C3)cc1 (single isomer, unassigned; (-)) [Example 81, (−)-1-[7-(4-methoxyphenyl)-2,3-dihydro-1-benzofuran-2-yl]methanamine]"
16 nM,–,91 nM,50%,"Cc1ccccc1-c1cc(F)cc2c1OC(CN)C2 (single isomer, unassigned; (-)) [Example 106, (−)-1-[5-fluoro-7-(2-methylphenyl)-2,3-dihydro-1-benzofuran-2-yl]methanamine]"
41 nM,70%,2 nM,–,"COc1cc2c(c(-c3ccccc3OC)c1)OC(CCN)C2 (racemic) [Example 554, (±)-{2-[7-(2-methoxyphenyl)-5-methoxy-2,3-dihydro-1-benzofuran-2-yl]ethyl}amine]"
45 nM,70%,70 nM,–,"CNCC1Cc2cc(OC)cc(-c3cc(OC)ccc3OC)c2O1 (racemic) [Example 501, (±)-{[7-(2,5-dimethoxyphenyl)-5-methoxy-2,3-dihydro-1-benzofuran-2-yl]methyl}methylamine]"
61 nM,60%,859 nM,–,"COc1cc2c(c(-c3ccc(F)c(Cl)c3)c1)OC(CN)C2 (racemic) [Example 373, (±)-{[7-(3-chloro-4-fluorophenyl)-5-methoxy-2,3-dihydro-1-benzofuran-2-yl]methyl}amine]"
10 nM,80%,30 nM,–,"COc1ccc(OC)c(-c2cc(F)cc3c2OC(CN)C3)c1 (racemic) [Example 223, (±)-{[7-(2,5-dimethoxyphenyl)-5-fluoro-2,3-dihydro-1-benzofuran-2-yl]methyl}amine]"
2 nM,100%,57 nM,–,"NCC1Cc2cc(Cl)cc(-c3cccc(F)c3F)c2O1 (single isomer, unassigned; (-)) [Example 245, (−)-{[5-chloro-7-(2,3-difluorophenyl)-2,3-dihydro-1-benzofuran-2-yl]methyl}amine]"

Ki [1],Emax (human 5-HT2C receptor),EC50 (human 5-HT2C receptor),5-HT2C Function Emax (%) (human 5-HT2C receptor),SMILES
34 nM,80%,228 nM,–,"COc1ccc(-c2cc(C(F)(F)F)cc3c2OC(CN)C3)cc1 (racemic) [Example 326, (±)-{[5-(trifluoromethyl)-7-(4-methoxyphenyl)-2,3-dihydro-1-benzofuran-2-yl]methyl}amine]"
8.6 nM,–,251 nM,90%,"NCC1Cc2cc(Cl)cc(-c3ccc(Cl)cc3Cl)c2O1 (single isomer, unassigned; (+)) [Example 253, (+)-{[5-chloro-7-(2,4-dichlorophenyl)-2,3-dihydro-1-benzofuran-2-yl]methyl}amine]"
4.8 nM,90%,5 nM,–,"CNCC1Cc2cc(F)cc(-c3ccccc3OC)c2O1 (racemic) [Example 443, (±)-{[5-fluoro-7-(2-methoxyphenyl)-2,3-dihydro-1-benzofuran-2-yl]methyl}methylamine]"
0.04 nM,100%,0.1 nM,–,"NCC1Cc2ccc(F)c(-c3ccccc3Cl)c2O1 (racemic) [Example 398, (±)-{[7-(2-chlorophenyl)-6-fluoro-2,3-dihydro-1-benzofuran-2-yl]methyl}amine]"
0.76 nM,100%,6 nM,–,"Cc1cc2c(c(-c3ccccc3Cl)c1)OC(CN)C2 (racemic) [Example 286, (±)-{[7-(2-chlorophenyl)-5-methyl-2,3-dihydro-1-benzofuran-2-yl]methyl}amine]"
1.7 nM,80%,58 nM,–,"Cc1ccc(-c2cc(C)cc3c2OC(CN)C3)cc1 (racemic) [Example 290, (±)-{[7-(4-methylphenyl)-5-methyl-2,3-dihydro-1-benzofuran-2-yl]methyl}amine]"
20 nM,–,1480 nM,50%,"NCC1Cc2cccc(-c3cccc(F)c3)c2O1 (single isomer, unassigned; (-)) [Example 132, (−)-1-[7-(3-fluorophenyl)-2,3-dihydro-1-benzofuran-2-yl]methanamine]"
0.9 nM,90%,24 nM,–,"CC(C)c1cc2c(c(-c3ccccc3Cl)c1)OC(CN)C2 (racemic) [Example 308, (±)-{[5-isopropyl-7-(2-chlorophenyl)-2,3-dihydro-1-benzofuran-2-yl]methyl}amine]"
0.48 nM,80%,9 nM,–,"COc1ccccc1-c1cc(F)cc2c1OC(CN)C2 (racemic) [Example 195, (±)-{[5-fluoro-7-(2-methoxyphenyl)-2,3-dihydro-1-benzofuran-2-yl]methyl}amine]"
25 nM,90%,19 nM,–,"NCC1Cc2cc(C(F)(F)F)cc(-c3ccccc3Cl)c2O1 (racemic) [Example 315, (±)-{[5-(trifluoromethyl)-7-(2-chlorophenyl)-2,3-dihydro-1-benzofuran-2-yl]methyl}amine]"
10 nM,–,194 nM,85%,"NCC1Cc2cccc(C3CCCC3)c2O1 (single isomer, unassigned; (-)) [Example 9, (−)-(7-cyclopentyl-2,3-dihydro-1-benzofuran-2-yl)methylamine]"
8 nM,90%,32 nM,–,"Cc1ccc(C)c(-c2cccc3c2OC(CN)C3)c1 (racemic) [Example 161, (±)-{[7-(2,5-dimethylphenyl)-2,3-dihydro-1-benzofuran-2-yl]methyl}amine]"
3.1 nM,90%,21 nM,–,"Cc1cc(Cl)ccc1-c1cccc2c1OC(CN)C2 (racemic) [Example 167, (±)-{[7-(4-chloro-2-methylphenyl)-2,3-dihydro-1-benzofuran-2-yl]methyl}amine]"
17 nM,80%,212 nM,–,"CNCC1Cc2cc(F)cc(-c3cc(Cl)ccc3OC)c2O1 (racemic) [Example 458, (±)-{[7-(5-chloro-2-methoxyphenyl)-5-fluoro-2,3-dihydro-1-benzofuran-2-yl]methyl}methylamine]"
14 nM,90%,44 nM,–,"Cc1cccc(C)c1-c1cc(C(F)(F)F)cc2c1OC(CN)C2 (racemic) [Example 338, (±)-{[7-(2,6-dimethylphenyl)-5-(trifluoromethyl)-2,3-dihydro-1-benzofuran-2-yl]methyl}amine]"

# Source: patent publication US7435837B2, “Dihydrobenzofuranyl alkanamine derivatives and methods for using same” (Wyeth, priority 2003, dated 2008)
